Test results from the supplement of paper PMC10307832.

Key:
Assay in all cases: relative viability (nuclei count vs DMSO), 5 days (fraction); higher = more cells survive
[1] = compound: CC1=CN2C(=O)C=C(N=C2C(=C1)C(C)NC3=CC=CC=C3)N4CCOCC4 [TGX 221] + C[C@]1(O)C[C@@H](c2nc(-c3ccc4ccc(-c5ccccc5)nc4c3)c3c(N)nccn32)C1 [Linsitinib] (partner 1 µM)
Summary of the method: (§1)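 Relative viability was taken as the ratio of nuclei in treated wells to nuclei in vehicle wells. Lung cancer cell lines in 1536-well plates received compounds by pin tool one day after seeding, either one drug alone or a fixed anchor-drug dose plus five library-drug doses (not always all listed) in √10 steps. Nuclei were counted on 4× images after 5 days of treatment, and values are medians of duplicate plates.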

[2] = compound: CC1=CN2C(=O)C=C(N=C2C(=C1)C(C)NC3=CC=CC=C3)N4CCOCC4 [TGX 221] + CS(=O)(=O)N1CCN(Cc2cc3nc(-c4cccc5[nH]ncc45)nc(N4CCOCC4)c3s2)CC1 [Pictilisib] (partner 1 µM)
Summary of the method: as §1

[3] = compound: O=C(CCCCCCNC(=O)c1cnc(N(c2ccccc2)c2ccccc2)nc1)NO [Ricolinostat] + Nc1nc2[nH]cc(CCc3ccc(C(=O)N[C@@H](CCC(=O)O)C(=O)O)cc3)c2c(=O)[nH]1 [Pemetrexed] (partner 0.2 µM)
Summary of the method: as §1

[4] = compound: O=C(CCCCCCNC(=O)c1cnc(N(c2ccccc2)c2ccccc2)nc1)NO [Ricolinostat] + CC(=O)c1c(C)c2cnc(Nc3ccc(N4CCNCC4)cn3)nc2n(C2CCCC2)c1=O [Palbociclib] (partner 0.5 µM)
Summary of the method: as §1

Row | Cell Line | relative viability ([1]; first compound 0.08 µM) | relative viability ([1]; first compound 0.253 µM) | relative viability ([1]; first compound 0.8 µM) | relative viability ([1]; first compound 2.53 µM) | relative viability ([1]; first compound 8 µM) | relative viability ([2]; first compound 0.08 µM) | relative viability ([2]; first compound 0.253 µM) | relative viability ([2]; first compound 0.8 µM) | relative viability ([2]; first compound 2.53 µM) | relative viability ([2]; first compound 8 µM) | relative viability ([3]; first compound 0.08 µM) | relative viability ([3]; first compound 0.253 µM) | relative viability ([3]; first compound 0.8 µM) | relative viability ([3]; first compound 2.53 µM) | relative viability ([4]; first compound 0.08 µM) | relative viability ([4]; first compound 0.253 µM) | relative viability ([4]; first compound 0.8 µM) | relative viability ([4]; first compound 2.53 µM)
1 | NCI-H358 | 0.757 | 0.684 | 0.732 | 0.65 | 0.588 | 0.374 | 0.352 | 0.373 | 0.354 | 0.32 | 0.179 | 0.194 | 0.183 | 0.156 | 0.151 | 0.147 | 0.173 | 0.165
2 | NCI-H441 | 0.623 | 0.644 | 0.485 | 0.571 | 0.548 | 0.486 | 0.447 | 0.456 | 0.511 | 0.508 | 0.267 | 0.25 | 0.289 | 0.272 | 0.213 | 0.233 | 0.2 | 0.234
3 | NCI-H460 | 0.677 | 0.641 | 0.693 | 0.622 | 0.592 | 0.339 | 0.363 | 0.23 | 0.312 | 0.378 | 0.0618 | 0.0585 | 0.0722 | 0.0727 | 0.184 | 0.191 | 0.0967 | 0.0766
4 | NCI-H520 | 0.929 | 0.767 | 0.779 | 0.679 | 0.63 | 0.335 | 0.237 | 0.276 | 0.251 | 0.296 | – | 0.762 | 0.744 | 0.628 | – | 0.256 | 0.262 | 0.27
5 | NCI-H647 | 0.915 | 0.948 | 1 | 0.749 | 0.611 | 0.407 | 0.404 | 0.406 | 0.37 | 0.412 | 0.192 | 0.18 | 0.174 | 0.134 | 0.391 | 0.338 | 0.407 | 0.266
6 | NCI-H650 | 0.732 | 0.885 | 0.779 | 0.772 | 0.713 | 0.893 | 0.768 | 0.831 | 0.92 | 0.777 | 0.643 | 0.912 | 0.861 | 0.734 | 0.33 | 0.356 | 0.32 | 0.253
7 | NCI-H661 | 0.486 | 0.472 | 0.363 | 0.457 | 0.362 | 0.388 | 0.464 | 0.403 | 0.323 | 0.355 | 0.832 | 0.879 | 0.9 | 0.776 | 0.426 | 0.381 | 0.415 | 0.364
8 | NCI-H838 | 0.917 | 0.819 | 0.841 | 0.836 | 0.618 | 0.427 | 0.364 | 0.425 | 0.495 | 0.404 | 0.236 | 0.273 | 0.259 | 0.208 | 0.202 | 0.262 | 0.182 | 0.235
9 | NCI-H1355 | 0.743 | 0.666 | 0.621 | 0.453 | 0.546 | 0.444 | 0.437 | 0.426 | 0.362 | 0.365 | 0.916 | 1.07 | 0.95 | 1.01 | 0.373 | 0.367 | 0.31 | 0.402
